# Test results taken from patent US20030203373A1 (priority 2002, published 2003).
# “And” between values parts separate entries of the source, which are not always exact repeats. Equal entries are not always repeated.
# Target: T1, ACE from pig kidney (Sus scrofa, UniProt F1RRW5)
# T1 construct: 1 mU ACE from pig kidney (EC 3.4.15.1 (Sigma)); purchased Sigma; host or cells: pig kidney (tissue-derived enzyme)
# T1 sequence (F1RRW5 34-1309): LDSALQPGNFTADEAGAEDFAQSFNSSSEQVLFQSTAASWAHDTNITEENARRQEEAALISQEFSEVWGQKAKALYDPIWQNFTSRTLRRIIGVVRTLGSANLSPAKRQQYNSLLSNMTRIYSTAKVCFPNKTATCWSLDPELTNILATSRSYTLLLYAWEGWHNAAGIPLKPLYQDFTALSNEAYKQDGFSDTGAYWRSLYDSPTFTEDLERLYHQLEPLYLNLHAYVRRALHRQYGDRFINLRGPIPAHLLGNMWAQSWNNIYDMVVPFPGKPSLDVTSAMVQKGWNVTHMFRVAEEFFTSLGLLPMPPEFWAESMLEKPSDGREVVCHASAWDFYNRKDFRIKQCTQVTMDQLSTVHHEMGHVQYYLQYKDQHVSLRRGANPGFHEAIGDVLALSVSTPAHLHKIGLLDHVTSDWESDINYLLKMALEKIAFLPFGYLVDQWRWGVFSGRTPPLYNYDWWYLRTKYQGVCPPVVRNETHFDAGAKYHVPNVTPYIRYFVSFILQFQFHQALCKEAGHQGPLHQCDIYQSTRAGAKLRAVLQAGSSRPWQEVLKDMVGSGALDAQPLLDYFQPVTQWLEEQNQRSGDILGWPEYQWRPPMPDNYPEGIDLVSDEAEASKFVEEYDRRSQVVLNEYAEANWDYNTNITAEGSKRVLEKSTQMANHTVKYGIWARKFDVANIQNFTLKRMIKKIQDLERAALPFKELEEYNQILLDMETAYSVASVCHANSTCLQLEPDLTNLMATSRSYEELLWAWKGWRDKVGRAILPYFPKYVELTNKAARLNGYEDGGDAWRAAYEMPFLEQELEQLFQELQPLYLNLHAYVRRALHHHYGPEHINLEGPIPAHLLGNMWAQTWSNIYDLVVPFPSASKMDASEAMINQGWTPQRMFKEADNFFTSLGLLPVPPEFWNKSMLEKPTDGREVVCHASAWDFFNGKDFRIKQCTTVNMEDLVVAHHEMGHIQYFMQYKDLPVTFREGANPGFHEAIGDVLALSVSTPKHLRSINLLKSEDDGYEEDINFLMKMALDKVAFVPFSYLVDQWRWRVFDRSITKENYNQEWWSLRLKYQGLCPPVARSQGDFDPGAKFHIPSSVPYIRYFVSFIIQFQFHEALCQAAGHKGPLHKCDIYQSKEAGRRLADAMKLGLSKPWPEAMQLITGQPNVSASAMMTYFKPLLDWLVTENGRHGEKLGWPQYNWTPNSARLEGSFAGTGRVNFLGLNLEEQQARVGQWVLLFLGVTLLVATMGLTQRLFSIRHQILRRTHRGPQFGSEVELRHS
# Assay: biochemical
# Assay type: biochemical
# Outline: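 Pig kidney ACE (1 mU) in 25 mM HEPES, 0,3 M NaCl, pH 8,2 was mixed with inhibitor solutions (0,35-200 μM) and started with 2 mM hippuryl-histidyl-leucine solution. After 30 min at 22° C the reaction was stopped with NaOH and the product derivatized with ortho-phthalaldehyde for fluorescence. IC50 was read graphically from % inhibition curves.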
# [1] = inhibitor 0.78125 μM, replicates A-D
# [2] = inhibitor 1.5625 μM, replicates A-D
# [3] = inhibitor 3.125 μM, replicates A-D
# [4] = inhibitor 6.25 μM, replicates A-D
# [5] = inhibitor 12.5 μM, replicates A-D
# [6] = inhibitor 25 μM, replicates A-D
# [7] = inhibitor 50 μM, replicates A-D
# [8] = inhibitor 100 μM, replicates A-D
# [9] = inhibitor 200 μM, replicates A-D
smiles,measurement,setting,value
CC(C)C[C@H](NC(=O)[C@H](C)N)C(=O)N[C@@H](CO)C(=O)N1CCC[C@H]1C(=O)N[C@@H](CC(C)C)C(=O)N1CCC[C@H]1C(=O)N[C@@H](CCC(=O)O)C(=O)N[C@H](C(=O)N1CCC[C@H]1C(=O)N1CCC[C@H]1C(=O)O)C(C)C [Peptide S545],IC50,"ACE from pig kidney, determined graphically, read-out: IC50-value (ACE inhibition)",2.4 µM
same,fluorescence reading (ACE Inhibitor Assay),"inhibitor 0.39 μM, replicates A-D",811412 and 841911 and 876502 and 774338
same,% inhibition (ACE Inhibitor Assay),"inhibitor 0.39 μM, replicates A-D, 0.39 µM",12.66% and 9.36% and 5.61% and 16.67%
same,fluorescence reading (ACE Inhibitor Assay),[1],726277 and 720995 and 719037 and 692816
same,inhibition at 0.78125 µM,[1],21.9%
same,% inhibition (ACE Inhibitor Assay),"inhibitor 0.78125 μM, replicates A-D, 0.78125 µM",22.45% and 22.66% and 25.5%
same,fluorescence reading (ACE Inhibitor Assay),[2],541353 and 551184 and 577933 and 551569
same,inhibition at 1.5625 µM,[2],41.9%
same,% inhibition (ACE Inhibitor Assay),"inhibitor 1.5625 μM, replicates A-D, 1.5625 µM",40.85% and 37.95% and 40.8%
same,fluorescence reading (ACE Inhibitor Assay),[3],405396 and 408086 and 447790 and 392263
same,inhibition at 3.125 µM,[3],56.6%
same,% inhibition (ACE Inhibitor Assay),"inhibitor 3.125 μM, replicates A-D, 3.125 µM",56.36% and 52.05% and 58.06%
same,fluorescence reading (ACE Inhibitor Assay),[4],251538 and 279216 and 263340 and 250076
same,inhibition at 6.25 µM,[4],73.3%
same,% inhibition (ACE Inhibitor Assay),"inhibitor 6.25 μM, replicates A-D, 6.25 µM",70.3% and 72.02% and 73.46%
same,fluorescence reading (ACE Inhibitor Assay),[5],174037 and 177324 and 175378 and 177772
same,inhibition at 12.5 µM,[5],81.7%
same,% inhibition (ACE Inhibitor Assay),"inhibitor 12.5 μM, replicates A-D, 12.5 µM",81.34% and 81.55% and 81.29%
same,fluorescence reading (ACE Inhibitor Assay),[6],108586 and 113328 and 113458 and 104078
same,inhibition at 25 µM,[6],88.8%
same,% inhibition (ACE Inhibitor Assay),"inhibitor 25 μM, replicates A-D, 25 µM",88.27% and 88.26% and 89.27%
same,fluorescence reading (ACE Inhibitor Assay),[7],53158 and 63009 and 54447 and 48696
same,inhibition at 50 µM,[7],94.8%
same,% inhibition (ACE Inhibitor Assay),"inhibitor 50 μM, replicates A-D, 50 µM",93.72% and 94.65% and 95.27%
same,fluorescence reading (ACE Inhibitor Assay),[8],28035 and 29130 and 30237 and 28568
same,inhibition at 100 µM,[8],97.5%
same,% inhibition (ACE Inhibitor Assay),"inhibitor 100 μM, replicates A-D, 100 µM",97.39% and 97.27% and 97.45%
same,fluorescence reading (ACE Inhibitor Assay),[9],17677 and 17238 and 18084 and 18937
same,inhibition at 200 µM,[9],98.6%
same,% inhibition (ACE Inhibitor Assay),"inhibitor 200 μM, replicates A-D, 200 µM",98.68% and 98.59% and 98.5%
same,fold higher dose necessary in the ACE-assay to reach the same effect as with Captopril,relative to Captopril,1000 fold
